How the values were obtained:
Test in all cases: SelectScreen ZLYTE
Format in all cases: biochemical
Conditions in all cases: INX-0315 at 100nM
AMPK (A1/B2/G3) = target: T1, AMPK (A1/B2/G3) (Homo sapiens, UniProt Q13131)
T1 construct: purchased Thermo Fisher Scientific SelectScreen (plus Nanosyn / Reaction Biology for CDK/cyclin lines)
How it was run: (§1)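 Activity and binding formats were run as established by the profiling service; INX-315 entered at one concentration (100 nmol/L, 1% DMSO) before titration over a 1 µmol/L–0.0495 nmol/L range in ten steps.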

AMPK (A2/B1/G3) = target: T2, AMPK (A2/B1/G3) (Homo sapiens, UniProt P54646)
T2 construct: purchased Thermo Fisher Scientific SelectScreen (plus Nanosyn / Reaction Biology for CDK/cyclin lines)
How it was run: as §1

AURKB (Aurora B) = target: T3, AURKB (Aurora B) (Homo sapiens, UniProt Q96GD4)
T3 construct: purchased Thermo Fisher Scientific SelectScreen (plus Nanosyn / Reaction Biology for CDK/cyclin lines)
How it was run: as §1

CAMK4 (CaMKIV) = target: T4, CAMK4 (CaMKIV) (Homo sapiens, UniProt Q16566)
T4 construct: purchased Thermo Fisher Scientific SelectScreen (plus Nanosyn / Reaction Biology for CDK/cyclin lines)
How it was run: as §1

CDC42 BPB (MRCKB) = target: T5, CDC42 BPB (MRCKB) (Homo sapiens, UniProt Q9Y5S2)
T5 construct: purchased Thermo Fisher Scientific SelectScreen (plus Nanosyn / Reaction Biology for CDK/cyclin lines)
How it was run: as §1

CDK17/cyclin Y = target: T6, CDK17/cyclin Y (Homo sapiens, UniProt Q00537)
T6 construct: purchased Thermo Fisher Scientific SelectScreen (plus Nanosyn / Reaction Biology for CDK/cyclin lines)
How it was run: as §1

CDK5/p35 = target: T7, CDK5/p35 (Homo sapiens, UniProt Q00535)
T7 construct: purchased Thermo Fisher Scientific SelectScreen (plus Nanosyn / Reaction Biology for CDK/cyclin lines)
How it was run: as §1

CSNK1G3 (CK1 gamma 3) = target: T8, CSNK1G3 (CK1 gamma 3) (Homo sapiens, UniProt Q9Y6M4)
T8 construct: purchased Thermo Fisher Scientific SelectScreen (plus Nanosyn / Reaction Biology for CDK/cyclin lines)
How it was run: as §1

CSNK2A2 (CK2 alpha 2) = target: T9, CSNK2A2 (CK2 alpha 2) (Homo sapiens, UniProt P19784)
T9 construct: purchased Thermo Fisher Scientific SelectScreen (plus Nanosyn / Reaction Biology for CDK/cyclin lines)
How it was run: as §1

DCAMKL2 (DCK2) = target: T10, DCAMKL2 (DCK2) (Homo sapiens, UniProt Q8N568)
T10 construct: purchased Thermo Fisher Scientific SelectScreen (plus Nanosyn / Reaction Biology for CDK/cyclin lines)
How it was run: as §1

[1] = target: T11, EGFR (ErbB1) T790M C797S L858R (Homo sapiens, UniProt P00533, C797S/L858R/T790M)
T11 construct: purchased Thermo Fisher Scientific SelectScreen (plus Nanosyn / Reaction Biology for CDK/cyclin lines)
How it was run: as §1

EGFR (ErbB1) T790M L858R = target: T12, EGFR (ErbB1) T790M L858R (Homo sapiens, UniProt P00533, L858R/T790M)
T12 construct: purchased Thermo Fisher Scientific SelectScreen (plus Nanosyn / Reaction Biology for CDK/cyclin lines)
How it was run: as §1

EPHA4 = target: T13, EPHA4 (Homo sapiens, UniProt P54764)
T13 construct: purchased Thermo Fisher Scientific SelectScreen (plus Nanosyn / Reaction Biology for CDK/cyclin lines)
How it was run: as §1

EPHA5 = target: T14, EPHA5 (Homo sapiens, UniProt P54756)
T14 construct: purchased Thermo Fisher Scientific SelectScreen (plus Nanosyn / Reaction Biology for CDK/cyclin lines)
How it was run: as §1

ERBB2 (HER2) = target: T15, ERBB2 (HER2) (Homo sapiens, UniProt P04626)
T15 construct: purchased Thermo Fisher Scientific SelectScreen (plus Nanosyn / Reaction Biology for CDK/cyclin lines)
How it was run: as §1

FES (FPS) = target: T16, FES (FPS) (Homo sapiens, UniProt P07332)
T16 construct: purchased Thermo Fisher Scientific SelectScreen (plus Nanosyn / Reaction Biology for CDK/cyclin lines)
How it was run: as §1

FLT4 (VEGFR3) = target: T17, FLT4 (VEGFR3) (Homo sapiens, UniProt P35916)
T17 construct: purchased Thermo Fisher Scientific SelectScreen (plus Nanosyn / Reaction Biology for CDK/cyclin lines)
How it was run: as §1

FYN = target: T18, FYN (Homo sapiens, UniProt P06241)
T18 construct: purchased Thermo Fisher Scientific SelectScreen (plus Nanosyn / Reaction Biology for CDK/cyclin lines)
How it was run: as §1

INSR = target: T19, INSR (Homo sapiens, UniProt P06213)
T19 construct: purchased Thermo Fisher Scientific SelectScreen (plus Nanosyn / Reaction Biology for CDK/cyclin lines)
How it was run: as §1

IRAK4 = target: T20, IRAK4 (Homo sapiens, UniProt Q9NWZ3)
T20 construct: purchased Thermo Fisher Scientific SelectScreen (plus Nanosyn / Reaction Biology for CDK/cyclin lines)
How it was run: as §1

JAK1 = target: T21, JAK1 (Homo sapiens, UniProt P23458)
T21 construct: purchased Thermo Fisher Scientific SelectScreen (plus Nanosyn / Reaction Biology for CDK/cyclin lines)
How it was run: as §1

MAP2K6 (MKK6) = target: T22, MAP2K6 (MKK6) (Homo sapiens, UniProt P52564)
T22 construct: purchased Thermo Fisher Scientific SelectScreen (plus Nanosyn / Reaction Biology for CDK/cyclin lines)
How it was run: as §1

MERTK (cMER) = target: T23, MERTK (cMER) (Homo sapiens, UniProt Q12866)
T23 construct: purchased Thermo Fisher Scientific SelectScreen (plus Nanosyn / Reaction Biology for CDK/cyclin lines)
How it was run: as §1

MST1R (RON) = target: T24, MST1R (RON) (Homo sapiens, UniProt Q04912)
T24 construct: purchased Thermo Fisher Scientific SelectScreen (plus Nanosyn / Reaction Biology for CDK/cyclin lines)
How it was run: as §1

NEK4 = target: T25, NEK4 (Homo sapiens, UniProt P51957)
T25 construct: purchased Thermo Fisher Scientific SelectScreen (plus Nanosyn / Reaction Biology for CDK/cyclin lines)
How it was run: as §1

PAK3 = target: T26, PAK3 (Homo sapiens, UniProt O75914)
T26 construct: purchased Thermo Fisher Scientific SelectScreen (plus Nanosyn / Reaction Biology for CDK/cyclin lines)
How it was run: as §1

PDGFRA V561D = target: T27, PDGFRA V561D (Homo sapiens, UniProt P16234, V561D)
T27 construct: purchased Thermo Fisher Scientific SelectScreen (plus Nanosyn / Reaction Biology for CDK/cyclin lines)
How it was run: as §1

PRKCD (PKC delta) = target: T28, PRKCD (PKC delta) (Homo sapiens, UniProt Q05655)
T28 construct: purchased Thermo Fisher Scientific SelectScreen (plus Nanosyn / Reaction Biology for CDK/cyclin lines)
How it was run: as §1

PRKCH (PKC eta) = target: T29, PRKCH (PKC eta) (Homo sapiens, UniProt P24723)
T29 construct: purchased Thermo Fisher Scientific SelectScreen (plus Nanosyn / Reaction Biology for CDK/cyclin lines)
How it was run: as §1

PRKD1 (PKC mu) = target: T30, PRKD1 (PKC mu) (Homo sapiens, UniProt Q15139)
T30 construct: purchased Thermo Fisher Scientific SelectScreen (plus Nanosyn / Reaction Biology for CDK/cyclin lines)
How it was run: as §1

PRKG1 = target: T31, PRKG1 (Homo sapiens, UniProt Q13976)
T31 construct: purchased Thermo Fisher Scientific SelectScreen (plus Nanosyn / Reaction Biology for CDK/cyclin lines)
How it was run: as §1

ROS1 = target: T32, ROS1 (Homo sapiens, UniProt P08922)
T32 construct: purchased Thermo Fisher Scientific SelectScreen (plus Nanosyn / Reaction Biology for CDK/cyclin lines)
How it was run: as §1

RPS6KA1 (RSK1) = target: T33, RPS6KA1 (RSK1) (Homo sapiens, UniProt Q15418)
T33 construct: purchased Thermo Fisher Scientific SelectScreen (plus Nanosyn / Reaction Biology for CDK/cyclin lines)
How it was run: as §1

TAOK2 (TAO1) = target: T34, TAOK2 (TAO1) (Homo sapiens, UniProt Q9UL54)
T34 construct: purchased Thermo Fisher Scientific SelectScreen (plus Nanosyn / Reaction Biology for CDK/cyclin lines)
How it was run: as §1

TEK (Tie2) = target: T35, TEK (Tie2) (Homo sapiens, UniProt Q02763)
T35 construct: purchased Thermo Fisher Scientific SelectScreen (plus Nanosyn / Reaction Biology for CDK/cyclin lines)
How it was run: as §1

TXK = target: T36, TXK (Homo sapiens, UniProt P42681)
T36 construct: purchased Thermo Fisher Scientific SelectScreen (plus Nanosyn / Reaction Biology for CDK/cyclin lines)
How it was run: as §1

ZAP70 = target: T37, ZAP70 (Homo sapiens, UniProt P43403)
T37 construct: purchased Thermo Fisher Scientific SelectScreen (plus Nanosyn / Reaction Biology for CDK/cyclin lines)
How it was run: as §1

T33 sequence (Q15418 whole entry): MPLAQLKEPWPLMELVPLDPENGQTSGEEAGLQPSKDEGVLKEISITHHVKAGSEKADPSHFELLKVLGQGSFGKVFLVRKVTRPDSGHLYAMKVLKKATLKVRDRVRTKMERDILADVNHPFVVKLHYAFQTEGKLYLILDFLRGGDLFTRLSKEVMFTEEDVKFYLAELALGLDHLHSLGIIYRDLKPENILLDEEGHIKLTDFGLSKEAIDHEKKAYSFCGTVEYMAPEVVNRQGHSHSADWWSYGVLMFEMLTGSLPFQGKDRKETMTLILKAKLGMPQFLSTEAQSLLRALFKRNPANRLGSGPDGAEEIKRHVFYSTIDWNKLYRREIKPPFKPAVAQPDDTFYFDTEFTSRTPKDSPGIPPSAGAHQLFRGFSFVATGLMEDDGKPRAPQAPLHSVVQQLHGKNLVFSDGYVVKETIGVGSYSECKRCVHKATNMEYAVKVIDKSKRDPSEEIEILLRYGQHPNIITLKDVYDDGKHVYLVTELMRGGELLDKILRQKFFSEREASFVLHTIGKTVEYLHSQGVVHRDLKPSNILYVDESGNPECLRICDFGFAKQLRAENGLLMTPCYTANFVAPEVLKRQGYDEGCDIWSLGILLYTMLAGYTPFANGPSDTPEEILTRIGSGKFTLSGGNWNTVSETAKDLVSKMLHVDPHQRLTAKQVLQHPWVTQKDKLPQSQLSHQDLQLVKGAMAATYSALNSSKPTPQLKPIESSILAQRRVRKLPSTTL
T1 sequence (Q13131 whole entry): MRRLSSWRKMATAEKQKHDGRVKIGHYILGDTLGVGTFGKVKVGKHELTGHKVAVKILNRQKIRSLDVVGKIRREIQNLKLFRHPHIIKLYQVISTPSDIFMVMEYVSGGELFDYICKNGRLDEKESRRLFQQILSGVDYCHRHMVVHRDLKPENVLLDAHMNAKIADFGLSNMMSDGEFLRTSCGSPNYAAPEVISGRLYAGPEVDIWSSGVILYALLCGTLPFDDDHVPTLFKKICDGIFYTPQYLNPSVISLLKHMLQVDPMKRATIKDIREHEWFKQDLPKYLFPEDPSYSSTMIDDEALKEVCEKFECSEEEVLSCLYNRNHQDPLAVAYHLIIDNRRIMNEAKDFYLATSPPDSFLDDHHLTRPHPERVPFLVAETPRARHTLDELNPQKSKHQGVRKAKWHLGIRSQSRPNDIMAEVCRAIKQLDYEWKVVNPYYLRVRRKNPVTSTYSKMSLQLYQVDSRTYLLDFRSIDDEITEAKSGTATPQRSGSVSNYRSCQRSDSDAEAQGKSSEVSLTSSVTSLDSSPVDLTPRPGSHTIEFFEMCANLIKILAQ
T1 sequence (O43741 whole entry partner): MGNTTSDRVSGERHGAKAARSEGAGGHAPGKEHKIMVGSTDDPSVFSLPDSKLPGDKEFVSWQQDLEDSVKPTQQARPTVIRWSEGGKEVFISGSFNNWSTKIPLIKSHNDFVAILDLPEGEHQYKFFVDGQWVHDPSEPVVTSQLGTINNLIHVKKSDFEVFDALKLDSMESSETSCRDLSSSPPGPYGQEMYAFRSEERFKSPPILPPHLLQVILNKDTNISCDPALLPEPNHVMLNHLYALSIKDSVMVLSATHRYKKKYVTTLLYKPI
T1 sequence (Q9UGI9 whole entry partner): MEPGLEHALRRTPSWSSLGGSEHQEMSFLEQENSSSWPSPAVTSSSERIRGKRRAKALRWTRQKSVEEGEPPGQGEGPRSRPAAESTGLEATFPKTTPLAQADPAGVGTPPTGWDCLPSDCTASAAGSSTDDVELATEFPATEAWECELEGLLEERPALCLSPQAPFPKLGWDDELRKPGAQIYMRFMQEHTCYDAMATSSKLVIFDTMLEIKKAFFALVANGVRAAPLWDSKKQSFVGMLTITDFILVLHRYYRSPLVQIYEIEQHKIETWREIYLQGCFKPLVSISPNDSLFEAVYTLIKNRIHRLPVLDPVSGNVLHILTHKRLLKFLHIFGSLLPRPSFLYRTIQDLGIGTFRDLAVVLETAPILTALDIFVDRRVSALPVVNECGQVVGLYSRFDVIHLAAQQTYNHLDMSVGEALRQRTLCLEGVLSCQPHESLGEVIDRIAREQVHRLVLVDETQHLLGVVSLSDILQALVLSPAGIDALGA
T12 sequence (P00533 25-1210 T790M/L858R): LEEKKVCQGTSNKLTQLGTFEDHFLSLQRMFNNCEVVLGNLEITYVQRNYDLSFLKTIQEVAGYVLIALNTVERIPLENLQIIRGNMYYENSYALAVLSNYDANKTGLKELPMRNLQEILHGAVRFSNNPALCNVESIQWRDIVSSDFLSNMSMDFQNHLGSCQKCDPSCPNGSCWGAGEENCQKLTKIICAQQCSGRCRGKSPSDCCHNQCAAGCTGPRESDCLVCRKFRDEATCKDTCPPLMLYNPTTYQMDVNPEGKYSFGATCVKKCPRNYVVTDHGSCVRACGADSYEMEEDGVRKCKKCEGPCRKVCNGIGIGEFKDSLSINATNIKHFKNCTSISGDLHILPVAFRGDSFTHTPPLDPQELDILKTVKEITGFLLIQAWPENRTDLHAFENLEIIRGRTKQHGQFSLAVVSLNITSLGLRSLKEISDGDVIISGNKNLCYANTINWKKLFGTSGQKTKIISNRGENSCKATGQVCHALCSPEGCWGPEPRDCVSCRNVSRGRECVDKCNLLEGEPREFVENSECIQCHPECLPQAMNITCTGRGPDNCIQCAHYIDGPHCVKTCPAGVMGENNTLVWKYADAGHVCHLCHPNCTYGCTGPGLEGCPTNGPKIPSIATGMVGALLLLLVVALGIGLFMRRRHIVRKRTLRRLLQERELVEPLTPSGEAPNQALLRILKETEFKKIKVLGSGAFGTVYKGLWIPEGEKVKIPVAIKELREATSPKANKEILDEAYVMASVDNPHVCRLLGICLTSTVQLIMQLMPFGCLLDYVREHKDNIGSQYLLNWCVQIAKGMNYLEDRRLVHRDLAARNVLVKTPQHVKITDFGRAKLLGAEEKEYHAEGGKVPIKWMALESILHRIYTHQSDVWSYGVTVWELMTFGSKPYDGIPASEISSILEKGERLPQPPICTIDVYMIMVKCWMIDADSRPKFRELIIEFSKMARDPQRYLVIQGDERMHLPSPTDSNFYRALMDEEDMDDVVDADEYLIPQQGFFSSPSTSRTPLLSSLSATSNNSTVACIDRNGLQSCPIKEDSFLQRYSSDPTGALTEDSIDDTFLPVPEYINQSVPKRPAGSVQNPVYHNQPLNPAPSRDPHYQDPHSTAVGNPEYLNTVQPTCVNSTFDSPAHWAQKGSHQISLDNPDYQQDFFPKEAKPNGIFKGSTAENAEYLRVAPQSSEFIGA
T22 sequence (P52564 whole entry): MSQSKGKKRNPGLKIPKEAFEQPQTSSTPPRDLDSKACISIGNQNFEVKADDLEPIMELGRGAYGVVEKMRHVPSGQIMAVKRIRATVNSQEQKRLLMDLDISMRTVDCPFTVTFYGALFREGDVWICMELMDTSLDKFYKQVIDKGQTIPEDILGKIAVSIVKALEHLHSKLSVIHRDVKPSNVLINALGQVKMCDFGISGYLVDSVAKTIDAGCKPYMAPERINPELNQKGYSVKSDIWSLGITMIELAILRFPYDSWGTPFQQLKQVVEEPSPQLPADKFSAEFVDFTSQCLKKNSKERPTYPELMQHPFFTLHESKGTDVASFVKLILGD
T9 sequence (P19784 whole entry): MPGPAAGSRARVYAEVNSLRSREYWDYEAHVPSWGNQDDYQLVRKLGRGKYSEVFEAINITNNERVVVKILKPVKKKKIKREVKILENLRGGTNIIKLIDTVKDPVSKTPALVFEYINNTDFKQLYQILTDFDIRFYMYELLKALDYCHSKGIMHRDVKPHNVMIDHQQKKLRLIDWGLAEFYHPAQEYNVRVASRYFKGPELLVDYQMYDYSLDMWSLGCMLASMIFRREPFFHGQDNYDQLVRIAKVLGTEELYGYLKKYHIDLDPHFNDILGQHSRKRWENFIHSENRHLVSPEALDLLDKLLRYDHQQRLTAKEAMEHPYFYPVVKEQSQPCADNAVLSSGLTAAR
T31 sequence (Q13976 whole entry): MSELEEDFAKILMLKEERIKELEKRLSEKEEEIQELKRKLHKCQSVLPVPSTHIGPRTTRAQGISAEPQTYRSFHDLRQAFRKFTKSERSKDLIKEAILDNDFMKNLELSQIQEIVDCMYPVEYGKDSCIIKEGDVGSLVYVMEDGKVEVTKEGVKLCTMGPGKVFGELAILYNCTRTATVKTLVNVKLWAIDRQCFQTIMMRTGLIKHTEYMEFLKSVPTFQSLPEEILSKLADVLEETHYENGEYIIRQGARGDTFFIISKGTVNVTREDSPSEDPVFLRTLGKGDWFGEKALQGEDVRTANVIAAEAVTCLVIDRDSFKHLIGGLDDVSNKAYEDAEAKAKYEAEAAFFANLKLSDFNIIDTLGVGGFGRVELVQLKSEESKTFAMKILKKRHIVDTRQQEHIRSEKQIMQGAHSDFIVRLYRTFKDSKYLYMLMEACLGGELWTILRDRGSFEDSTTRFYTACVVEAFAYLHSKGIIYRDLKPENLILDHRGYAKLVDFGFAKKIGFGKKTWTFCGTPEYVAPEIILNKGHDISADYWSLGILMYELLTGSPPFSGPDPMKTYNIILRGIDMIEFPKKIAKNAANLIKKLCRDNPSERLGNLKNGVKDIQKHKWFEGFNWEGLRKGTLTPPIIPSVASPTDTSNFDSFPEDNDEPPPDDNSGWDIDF
T3 sequence (Q96GD4 whole entry): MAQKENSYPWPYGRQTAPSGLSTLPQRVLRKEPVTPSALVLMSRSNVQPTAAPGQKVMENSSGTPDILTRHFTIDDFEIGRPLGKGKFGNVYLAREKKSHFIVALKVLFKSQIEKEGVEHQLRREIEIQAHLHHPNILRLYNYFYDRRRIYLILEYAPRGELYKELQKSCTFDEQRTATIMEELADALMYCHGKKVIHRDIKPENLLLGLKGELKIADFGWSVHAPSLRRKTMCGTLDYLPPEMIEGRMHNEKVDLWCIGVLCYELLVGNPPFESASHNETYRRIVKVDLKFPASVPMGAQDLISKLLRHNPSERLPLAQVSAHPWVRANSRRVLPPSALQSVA

Question: Which results are given for `NS(=O)(=O)c1ccc(Nc2ncc3cc4n(c3n2)C2(CCCCC2)C(=O)NN4)cc1` [INX-315]?
Answer: inhibition at 0.1 µM (AMPK (A1/B2/G3)): 60%; inhibition at 0.1 µM (AMPK (A2/B1/G3)): 17%; inhibition at 0.1 µM (AURKB (Aurora B)): 53%; inhibition at 0.1 µM (CAMK4 (CaMKIV)): 0%; inhibition at 0.1 µM (CDC42 BPB (MRCKB)): -1%; inhibition at 0.1 µM (CDK17/cyclin Y): 20%; inhibition at 0.1 µM (CDK5/p35): 87%; inhibition at 0.1 µM (CSNK1G3 (CK1 gamma 3)): -1%; inhibition at 0.1 µM (CSNK2A2 (CK2 alpha 2)): 4%; inhibition at 0.1 µM (DCAMKL2 (DCK2)): -1%; inhibition at 0.1 µM [1]: 3%; inhibition at 0.1 µM (EGFR (ErbB1) T790M L858R): 0%; inhibition at 0.1 µM (EPHA4): 5%; inhibition at 0.1 µM (EPHA5): 1%; inhibition at 0.1 µM (ERBB2 (HER2)): 0%; inhibition at 0.1 µM (FES (FPS)): 17%; inhibition at 0.1 µM (FLT4 (VEGFR3)): 53%; inhibition at 0.1 µM (FYN): 4%; inhibition at 0.1 µM (INSR): 7%; inhibition at 0.1 µM (IRAK4): 10%; inhibition at 0.1 µM (JAK1): 78%; inhibition at 0.1 µM (MAP2K6 (MKK6)): 3%; inhibition at 0.1 µM (MERTK (cMER)): 20%; inhibition at 0.1 µM (MST1R (RON)): 2%; inhibition at 0.1 µM (NEK4): 15%; inhibition at 0.1 µM (PAK3): 4%; inhibition at 0.1 µM (PDGFRA V561D): 53%; inhibition at 0.1 µM (PRKCD (PKC delta)): -5%; inhibition at 0.1 µM (PRKCH (PKC eta)): 11%; inhibition at 0.1 µM (PRKD1 (PKC mu)): 9%; inhibition at 0.1 µM (PRKG1): 7%; inhibition at 0.1 µM (ROS1): 19%; inhibition at 0.1 µM (RPS6KA1 (RSK1)): 47%; inhibition at 0.1 µM (TAOK2 (TAO1)): 10%; inhibition at 0.1 µM (TEK (Tie2)): -1%; inhibition at 0.1 µM (TXK): 7%; inhibition at 0.1 µM (ZAP70): -1%

— publication PMC10905675, “INX-315, a Selective CDK2 Inhibitor, Induces Cell Cycle Arrest and Senescence in Solid Tumors” (Cancer Discovery, 2023)
